Results reported in patent US10335417B2, “Thiazideamide derivative and use thereof” (Institute of Pharmacology and Toxicology Academy of …, priority 2015, dated 2019).

Key:
[1] = test system: chick embryo dorsal root ganglion; assay: in vitro serum-free culture model of chick embryonic dorsal root ganglion: neurite growth score with NGF; assay type: cell-based; conditions: for Average score (growth of neurites of chick embryo dorsal root ganglion): 48 h, score 0-3, average of five ganglions, control 0.33
Procedure: The neurotrophic activity of the compounds according to the invention can be embodied in multiple in vitro biological models, such as in vitro serum-free culture model of chick embryonic dorsal root ganglion.
Experimental method: in a sterile environment, chick embryo, which had been incubated for 8 d, had the spinal and bilateral ganglion exposed under anatomical lens. Dorsal root ganglions were picked one by one using sharp forceps, and seeded in culture bottles spread with rat tail collagen, at a density of 5-6 ganglions per bottle, and two bottles for each dose. After attachment culture in a 37° C., 5% CO2 incubator for 1 h, serum-free medium DMEM containing nerve growth factor (NGF) (0.15 ng/mL), and the compound according to the invention were added. In the control group, only the medium and the same dose of NGF were added. After culture in the incubator for 48 h, the growth of neurite around dorsal root ganglion was observed under inverted phase contrast microscope, which was scored depending on the length and density of neurite.
Evaluation criteria: 0: no neurite; 1: rare long neurite; 2: relatively long or dense neurite; 3: long and dense neurite.

MDCK-MDR1 cells = assay: in vitro; conditions: for Papp (apparent permeability coefficient): MDCK-MDR1
Description: (§1) MDCK-MDR1 cells were monolayer cells which highly express P-gp transporter after transfection of MDCK (Madin-Darby canine kidney epithelial cell) with MDR1 gene. Due to its density and high expression of efflux protein, the monolayer has similarity compared to blood-brain barrier (BBB) structure and now can be used as one of models for evaluating the ability of passing through BBB. In the invention, MDCK-MDR1 cells were used to study the membrane permeability of the compounds according to the invention, and to primarily evaluate its ability of passing through BBB.
(§2) The frozen MDCK-MDR1 cells were quickly thawed in a 37° C. water bath. To the resuscitated cells, DMEM medium containing 10% FBS was added, and the cells were cultured in an incubator at 37° C., 5% CO2, and a relative humidity of 90%. The medium was changed every other day. After fusion of the cells growing for 1-2 days, the cells were digested with 0.25% trypsin-EDTA (0.2%) mixed digestion solution at 37° C., and were sub-cultured at a certain ratio. The cells for use in experiment were those passaged for 40-60 generations.
(§3) When the cell fusion degree reached 80%, the cells were digested and then suspended in complete medium, and seeded to Millicell plate at 1×10^6 cells·mL^−1. The medium was changed every other day, and 1 week later, the medium was changed every day. After culturing for 5 days, the resistance value reached a constant value (>200 Ω·cm^2), and the cells could be used in the transport experiment.
(§4) After washing with 37° C. HBSS twice, the cells were incubated in a 37° C. culture incubator, wherein Rho-123 was added to the upper wells, and HBSS was added to the bottom wells. The incubation was carried out in a constant temperature shaker, and the solutions from the bottom wells were collected at each time point (0 min, 30 min, 90 min, 120 min), and stored at −20° C. for further use. The amount of Rho-123 permeated to the bottom well was determined by fluorospectrophotometer, wherein the emission wavelength was […], and the excitation wavelength was 530 nm.
(§5) The permeability from cavity-surface to basal surface: drug-containing HBSS 0.35 mL was add to Apical (AP), and blank HBSS 1.2 mL was added to Basolateral (BL). The Millicell was placed at 37° C. in a shaker under shaking at 50 r·min^−1, 50 μL sample was collected from the bottom well at 0, 30, 90, 120 min, respectively, and the same volume of blank HBSS was supplemented. 3 wells were set for each concentration, and to the sample, an internal standard solution (50 μL) and ethyl acetate (350 μL) were added precisely. The mixture was mixed homogeneously under shaking, and centrifuged at 12000 rmp for 5 min. The supernatant (300 μL) was volatilized to dryness, and re-dissolved in 50 μL acetonitrile. The 10 μL resultant solution was used for determination.
(§6) The permeability from basal surface to cavity surface: the drug is added to Basolateral (BL), and blank HBSS was added to Apical (AP), and the other steps were the same as those of the experiment for determining the permeability from cavity-surface to basal surface.
(§7) The apparent permeability coefficient (Papp) of a drug reflects the ability of the drug to pass through cell monolayer and the drug absorption rate and extent. It can be calculated in accordance with the following equation: […]
(§8) wherein, Q represents the amount of drug permeated in the t period, A represents cell surface area, and represents the area (0.6 cm^2) of supporting film in this model, and C0 represents an initial concentration. The unit of Papp is expressed as cm·s^−1.
(§9) By measurement using LC/MS, the concentration of each sample was quantitated using its standard curve (50 nM-10000 nM).

[2] = test system: BCAO-LBP mice (incomplete global cerebral ischemia); assay: mouse BCAO-LBP model of incomplete global cerebral ischemia: cerebral MDA content and neurological function score; assay type: in vivo, Kunmin mice; conditions: for Neurologic deficit score / MDA content: 30 mg/kg i.g. once/d for 3 d, x ± SEM; for Neurologic deficit score: behaviour within 6 h after ligation, model group 3.92, sham 0.00; for MDA content: whole cerebrum, model group 40.94, sham 33.15; for neurologic deficit score decreased compared to the group administered with Compound 5 / neurologic deficit score decreased compared to the group administered with Compound 6: 30 mg/kg i.g., BCAO-LBP mice
Description: In the Example, Kunmin mice were used as experimental subjects, intragastric (i.g.) administration was used, mouse BCAO-LBP (bilateral carotid artery occlusion with low blood pressure) model was used, and by determining neurological function score and the cerebral malondialdehyde (MDA) content in mice, the compounds were investigated for their protective effects on incomplete global cerebral ischemia in mice when administered prophylactically.
2.1.2 Preparation of a drug for intragastric administration: the compound was prepared to a 1.5 mg/ml solution using 0.7% CMC-Na solution.
28 mice, which had adapted to the laboratory environment for 1 week, were evenly grouped depending on body weight. The mice were intragastrically administered with 0.7% CMC-Na or one of the compounds, once/d, for 3 d. The groups were as followed:
Administration group: 12 mice, intragastrically administered at a dose of 0.2 ml/10 g, i.e., the dose of the compound was 30 mg/kg.
2.3.1 Mouse bilateral carotid artery ligation: 1 h after the last administration, the mice were subjected to orbital bloodletting to reduce blood pressure (which was about 30% of the total blood volume of the mice), and then fixed in supine position on the operating table, and cut in the middle of neck. Carotid artery was subjected to blunt dissection, and 2 lines were used in ligation for each side. The time counting started after the ligation with the third line, the carotid artery was cut off between the two lines, and the incision was sewn up. In the Sham-operated group, the carotid artery was only separated without ligation. After the operation, the mice were unfixed quickly, and the mice were observed and recorded for the behaviors within 6 h (scoring depending on the following table using blind method) and the death time. The brains were taken quickly after the mice died, the cerebellums were removed, and the MDA content in the whole cerebrum was determined by thiobarbituric acid (TBA).
The cerebra of mice were taken and weighed, and were prepared into 15% brain homogenate using N.S. 1.2 ml brain homogenate was placed in a 37° C. water bath for 1 h (shaking once every 10 min) and then taken out. 20% trichloroacetic acid 0.6 ml was added, and the mixture was mixed well, and was on standing for 10 min. After centrifugation at 2000 rpm for 10 min, to 1.2 ml supernatant, 0.67% TBA 0.6 ml was added. The mixture was placed in a boiling water bath for 10 min, and was taken out for cooling, and the OD value at a wavelength of 532 nm was determined.
The experimental data was expressed as x±SEM; SPSS 13.0 statistic software was used. Homogeneity or heterogeneity of variance was determined by one-factor analysis of variance. In the case of homogeneity of variance, LSD test was used; in the case of heterogeneity of variance, Dunnett's T3 test was used. Significant difference among different groups was compared, and P<0.05 indicated statistical significance.

in vitro = conditions: dog, MDCK-MDR1
Description: as §1, §2, §3, §4, §5, §6, §7, §8, §9

[3] = compound 100 pM + NGF 0.15 ng/mL

| Structure (SMILES) | Average score (growth of neurites of chick embryo dorsal root ganglion) ([1]; compound 1 pM + NGF 0.15 ng/mL) | Average score (growth of neurites of chick embryo dorsal root ganglion) [1, 3] | Papp (apparent permeability coefficient) (MDCK-MDR1 cells) [×10⁻⁶ cm/s] | Neurologic deficit score [2] | MDA content [2] [nmol/g] | Papp at 120 min (in vitro) [×10⁻⁶ cm/s] | neurologic deficit score decreased compared to the group administered with Compound 5 [2] | neurologic deficit score decreased compared to the group administered with Compound 6 [2] | neurotrophic activity increased compared to Compound 6 ([1]; dose 1 pM) [%] | neurotrophic activity increased compared to Compound 6 ([1]; dose 100 pM) [%] | Papp value increased compared to Compound 6 (MDCK-MDR1 cells; dog, MDCK-MDR1, 120 min) |
| --- | --- | --- | --- | --- | --- | --- | --- | --- | --- | --- | --- |
| CCOC(=O)[C@H](CC(C)C)NC(=O)[C@@H]1CSCCN1S(=O)(=O)c1ccc(C)cc1 [Compound 5, (3R)-4-[(4-methylbenzenesulfonyl)]-1,4-thiazin-3-carbonyl-L-leucine ethyl ester, reference compound] | 0.65 | 1.55 | 8.38 | 3.62 ± 0.31 | 36.09 ± 1.85 |  |  |  |  |  |  |
| Cc1ccc(S(=O)(=O)N2CCSC[C@H]2C(=O)N[C@H](CC(C)C)C(=O)OC(C)C)cc1 [Compound 6, (3R)-4-[(4-methylbenzenesulfonyl)]-1,4-thiazin-3-carbonyl-D-leucine isopropyl ester, reference compound] | 1.68 | 2.55 | 39.5 | 2.08 ± 0.40 | 32.87 ± 0.95 |  |  |  |  |  |  |
| CCOC(=O)[C@H](CCc1ccccc1)NC(=O)[C@@H]1CSCCN1S(=O)(=O)c1ccc(C)cc1 [Compound 22, (S)-ethyl-4-phenyl-2((R)-(4-methylphenyl)sulfonyltetrahydro-1,4-thiazin-3-aminoformyl)butyrate] | 1.88 | 2.78 |  | 3.08 ± 0.40 | 33.27 ± 1.61 | 40.6 | about 15% |  |  |  |  |
| Cc1ccc(S(=O)(=O)N2CCSC[C@H]2C(=O)N[C@@H](C(=O)OC(C)(C)C)C(C)C)cc1 [Compound 15, (R)-tert-butyl-3-methyl-2((R)-(4-methylphenyl)sulfonyltetrahydro-1,4-thiazin-3-aminoformyl)butyrate] | 1.78 | 2.68 |  | 1.91 ± 0.28 | 33.77 ± 1.61 | 40.8 |  | ~8% |  |  |  |
| Cc1ccc(S(=O)(=O)N2CCSC[C@H]2C(=O)N[C@@H](Cc2ccccc2)C(=O)OCc2ccccc2)cc1 [Compound 18, (S)-benzyl-3-phenyl-2((R)-(4-methylphenyl)sulfonyltetrahydro-1,4-thiazin-3-aminoformyl)propionate] | 1.66 | 2.68 |  | 2.65 ± 0.31 | 32.66 ± 0.93 | 28.5 | ~27% |  |  |  |  |
| CCC(C)[C@H](NC(=O)[C@@H]1CSCCN1S(=O)(=O)c1ccc(C)cc1)C(=O)OC (stereo partly drawn) [Compound 8, (2S,3R)-methyl-3-methyl-2((R)-(4-methylphenyl)sulfonyltetrahydro-1,4-thiazin-3-aminoformyl)valerate] | 1.78 | 2.45 |  | 1.77 ± 0.28 | 34.95 ± 1.55 | 19.2 |  | about 15% |  |  |  |
| Cc1ccc(S(=O)(=O)N2CCSC[C@H]2C(=O)N[C@H](Cc2ccccc2)C(=O)OC(C)(C)C)cc1 [Compound 20, (R)-tert-butyl-3-phenyl-2((R)-(4-methylphenyl)sulfonyltetrahydro-1,4-thiazin-3-aminoformyl)propionate] | 2.10 | 3.32 |  | 3.76 ± 0.31 | 34.90 ± 1.65 | 18.8 |  |  | 25 | 30 |  |
| CCOC(=O)[C@@H](NC(=O)[C@@H]1CSCCN1S(=O)(=O)c1ccc(C)cc1)C(C)CC (stereo partly drawn) [Compound 7, (2S,3R)-ethyl-3-methyl-2((R)-(4-methylphenyl)sulfonyltetrahydro-1,4-thiazin-3-aminoformyl)valerate] | 1.46 | 1.95 |  |  |  | 49.8 |  |  |  |  | above 7% |
| CCC(C)[C@H](NC(=O)[C@@H]1CSCCN1S(=O)(=O)c1ccc(C)cc1)C(=O)OC(C)(C)C (stereo partly drawn) [Compound 9, (2S,3R)-tert-butyl-3-methyl-2((R)-(4-methylphenyl)sulfonyltetrahydro-1,4-thiazin-3-aminoformyl)valerate] | 1.76 | 2.56 |  | 2.37 ± 0.31 | 33.29 ± 1.81 | 12.4 | about 35% |  |  |  |  |
